This assay deals with T1, human V1a receptor (Homo sapiens, UniProt P37288).
T1 construct: expressed in transfected cells; host or cells: HEK293 cells, transiently transfected; cell membranes
T1 sequence (P37288 whole entry): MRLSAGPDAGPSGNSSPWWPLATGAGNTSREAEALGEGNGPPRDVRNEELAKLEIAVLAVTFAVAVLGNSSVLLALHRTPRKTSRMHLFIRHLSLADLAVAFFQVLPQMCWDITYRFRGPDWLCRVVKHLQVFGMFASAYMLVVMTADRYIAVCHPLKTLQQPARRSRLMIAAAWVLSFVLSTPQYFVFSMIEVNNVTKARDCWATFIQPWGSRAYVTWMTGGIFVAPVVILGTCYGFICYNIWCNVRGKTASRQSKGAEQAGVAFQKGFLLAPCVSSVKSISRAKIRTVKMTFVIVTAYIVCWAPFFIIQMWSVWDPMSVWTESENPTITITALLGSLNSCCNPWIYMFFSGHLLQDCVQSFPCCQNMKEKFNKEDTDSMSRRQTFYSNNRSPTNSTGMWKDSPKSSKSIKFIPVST
In words: human V1a receptor binding studies (3H-Vasopressin SPA, HEK293 cell membranes). The settings on record: competition with 3H-Vasopressin on membranes of HEK293 cells transiently transfected with human V1a receptor; Ki by Cheng-Prussoff equation; read-out: pKi (hV1a) (converted). Here is the method:
The human V1a receptor was cloned by RT-PCR from total human liver RNA. The coding sequence was subcloned in an expression vector after sequencing to confirm the identity of the amplified sequence. […] Cell membranes were prepared from HEK293 cells transiently transfected with the expression vector and grown in 20 liter fermenters with the following protocol.
50 g of cells are re-suspended in 30 ml freshly prepared ice cold Lysis buffer (50 mM HEPES, 1 mM EDTA, 10 mM MgCl2 adjusted to pH= 7.4 + complete cocktail of protease inhibitor (Roche Diagnostics)). Homogenized with Polytron for Imin and sonicated on ice for 2x 2 minutes at 80% intensity (Vibracell sonicator). The preparation is centrifuged 20 min at 500 g at 4° C., the pellet is discarded and the supernatant centrifuged 1 hour at 43 ′000g at 4° C. (19 ′000rpm). The pellet is re-suspended in 12.5 ml Lysis buffer+12.5 ml Sucrose 20% and homogenized using a Polytron for 1-2 min. The protein concentration is determined by the Bradford method and aliquots are stored at -80° C. until use. For binding studies 60 mg Yttrium silicate SPA beads (Amersham) are mixed with an aliquot of membrane in binding buffer (50 mM Tris, 120 mM NaCl, 5 mM KCl, 2 mM CaCl2, 10 mM MgCl2) for 15 minutes with mixing. 50 µl of bead/membrane mixture is then added to each well of a 96 well plate, followed by 50 µl of 4 nM 3H-Vasopressin (American Radiolabeled Chemicals). For total binding measurement 100 µl of binding buffer are added to the respective wells, for non-specific binding 100 µl of 8.4 mM cold vasopressin and for compound testing 100 µl of a serial dilution of each compound in 2% DMSO. The plate is incubated 1 h at room temperature, centrifuged 1 min at 1000 g and counted on a Packard Top-Count. Non-specific binding counts are subtracted from each well and data is normalized to the maximum specific binding set at 100%. To calculate an IC50 the curve is fitted using a non-linear regression model (XLfit) and the Ki is calculated using the Cheng-Prussoff equation.
As for `C[S+]([O-])Cc1nnc([C@H]2CC[C@H](Oc3ccccn3)CC2)n1-c1ccc(Cl)cc1` (mixture of isomers) [Example 37, trans-(rac)-2-((4-(4-(4-Chlorophenyl)-5-((methylsulfinyl)methyl)-4H-1,2,4-triazol-3-yl)cyclohexyl)oxy)pyridine], the Ki was 64.6 nM.
For the molecule `C[S@@+]([O-])Cc1nnc(C2CCC(Oc3ccccn3)CC2)n1-c1ccc(Cl)cc1` (single isomer, unassigned) [Example 39, trans-(+)-2-((4-(4-(4-Chlorophenyl)-5-((methylsulfinyl)methyl)-4H-1,2,4-triazol-3-yl)cyclohexyl)oxy)pyridine], the Ki was 31.6 nM.
For `C[S@+]([O-])Cc1nnc([C@H]2CC[C@H](Oc3ccccn3)CC2)n1-c1ccc(Cl)cc1` (stereo in doubt) [Example 38, trans-(-)-2-((4-(4-(4-Chlorophenyl)-5-((methylsulfinyl)methyl)-4H-1,2,4-triazol-3-yl)cyclohexyl)oxy)pyridine] the value was 91.2 nM; for `COc1cc(Cl)ccc1-n1c(C)nnc1[C@H]1CC[C@@H](Oc2ccccc2)CC1` [Example 2, cis(4-Chloro-2-methoxy-phenyl)-3-methyl-5-(4-phenoxy-cyclohexyl)-4H-[1,2,4]triazole], 7.59 nM.
To `Cc1nnc([C@H]2CC[C@H](Oc3ccccn3)CC2)n1-c1ccc(Cl)cc1` [Example 3, trans(4-(4-(4-Chlorophenyl)-5-methyl-4H-1,2,4-triazol-3-yl)cyclohexyloxy)pyridine] belongs 0.912 nM; to `Cc1nnc([C@H]2CC[C@H](Oc3ccccn3)CC2)n1-c1ccc(F)cc1` [Example 4, trans((4-(4-(4-Fluorophenyl)-5-methyl-4H-1,2,4-triazol-3-yl)cyclohexyl)oxy)pyridine], 2.04 nM.
Take `Cc1nnc([C@H]2CC[C@H](Oc3ccccn3)CC2)n1-c1ccccc1` [Example 5, trans((4-(5-Methyl-4-phenyl-4H-1,2,4-triazol-3-yl)cyclohexyl)oxy)pyridine]: the Ki was 5.25 nM.
For `Cc1nnc([C@H]2CC[C@H](Oc3ccccn3)CC2)n1-c1ccc(C(F)F)cc1` [Example 7, trans((4-(4-(4-(Difluoromethyl)phenyl)-5-methyl-4H-1,2,4-triazol-3-yl)cyclohexyl)oxy)pyridine] the value was 18.6 nM; for `Cc1nnc([C@H]2CC[C@H](Oc3ccccn3)CC2)n1-c1ccc(C#N)cc1` [Example 8, trans(3-Methyl-5-((1r,4r)(pyridin-2-yloxy)cyclohexyl)-4H-1,2,4-triazolyl)benzonitrile], 38.9 nM; for `Cc1nnc([C@H]2CC[C@H](Oc3ccccn3)CC2)n1-c1ccc(Br)cc1` [Example 9, trans((4-(4-(4-Bromophenyl)-5-methyl-4H-1,2,4-triazol-3-yl)cyclohexyl)oxy)pyridine], 0.195 nM.
To `Cc1nnc([C@H]2CC[C@H](Oc3ccccn3)CC2)n1-c1ccc(Cl)cc1F` [Example 12, trans((4-(4-(4-Chlorofluorophenyl)-5-methyl-4H-1,2,4-triazol-3-yl)cyclohexyl)oxy)pyridine] belongs 0.759 nM.
For `Cc1cc(Cl)ccc1-n1c(C)nnc1[C@H]1CC[C@H](Oc2ccccn2)CC1` [Example 13] the value was 0.269 nM; for `CSc1cc(Cl)ccc1-n1c(C)nnc1[C@H]1CC[C@H](Oc2ccccn2)CC1` [Example 14, trans[4-[4-(4-Chloromethylsulfanylphenyl)-5-methyl-1,2,4-triazol-3-yl]cyclohexyl]oxypyridine], 1.58 nM; for `Cc1ccc(-n2c(C)nnc2[C@H]2CC[C@H](Oc3ccccn3)CC2)cc1F` [Example 20, trans((4-(4-(3-Fluoro-4-methylphenyl)-5-methyl-4H-1,2,4-triazol-3-yl)cyclohexyl)oxy)pyridine], 1.82 nM.
For `Cc1nnc([C@H]2CC[C@H](Oc3ccccn3)CC2)n1-c1ccc(F)c(F)c1` [Example 21, trans((4-(4-(3,4-Difluorophenyl)-5-methyl-4H-1,2,4-triazol-3-yl)cyclohexyl)oxy)pyridine], the Ki is 7.08 nM.
To `Cc1nnc([C@H]2CC[C@H](Oc3ccccn3)CC2)n1-c1ccc(Cl)cn1` [Example 23] belongs 17 nM; to `Cc1nnc([C@H]2CC[C@H](Oc3ccccn3)CC2)n1-c1ncc(Cl)cc1F` [Example 24, transChloro-3-fluoro-2-(3-methyl(4-(pyridin-2-yloxy)cyclohexyl)-4H-1,2,4-triazol-4-yl)pyridine], 61.7 nM; to `Cc1ccc(-n2c(C(F)F)nnc2[C@H]2CC[C@H](Oc3ccccn3)CC2)cc1` [Example 31, trans((4-(5-(Difluoromethyl)-4-(p-tolyl)-4H-1,2,4-triazol-3-yl)cyclohexyl)oxy)pyridine], 3.39 nM.
To `FC(F)(F)c1nnc([C@H]2CC[C@H](Oc3ccccn3)CC2)n1-c1ccc(Cl)cc1` [Example 33, trans((4-(4-(4-Chlorophenyl)-5-(trifluoromethyl)-4H-1,2,4-triazol-3-yl)cyclohexyl)oxy)pyridine] belongs 2.14 nM.
As to `COCc1nnc([C@H]2CC[C@H](Oc3ccccn3)CC2)n1-c1ccc(Cl)cc1` [Example 35, trans(4-(4-(4-Chlorophenyl)-5-(methoxymethyl)-4H-1,2,4-triazol-3-yl)cyclohexyloxy)pyridine], the Ki was 0.631 nM.
For `CN(C)Cc1nnc([C@H]2CC[C@H](Oc3ccccn3)CC2)n1-c1ccc(Cl)cc1` [Example 43, trans(4-(4-Chlorophenyl)-5-(4-(pyridin-2-yloxy)cyclohexyl)-4H-1,2,4-triazol-3-yl)-N,N-dimethylmethanamine] the value was 2.14 nM; for `CSCCc1nnc([C@H]2CC[C@H](Oc3ccccn3)CC2)n1-c1ccc(Cl)cc1` [Example 46, trans((4-(4-(4-Chlorophenyl)-5-(2-(methylthio)ethyl)-4H-1,2,4-triazol-3-yl)cyclohexyl)oxy)pyridine], 0.575 nM; for `CN(C)CCc1nnc([C@H]2CC[C@H](Oc3ccccn3)CC2)n1-c1ccc(Cl)cc1` [Example 47], 33.1 nM.
For `CS(=O)(=O)c1nnc([C@H]2CC[C@H](Oc3ccccn3)CC2)n1-c1ccc(Cl)cc1` [Example 48, trans((4-(4-(4-Chlorophenyl)-5-(methylsulfonyl)-4H-1,2,4-triazol-3-yl)cyclohexyl)oxy)pyridine] the value was 20 nM.
To `COc1nnc([C@H]2CC[C@H](Oc3ccccn3)CC2)n1-c1ccc(Cl)cc1` [Example 49, trans((4-(4-(4-Chlorophenyl)-5-methoxy-4H-1,2,4-triazol-3-yl)cyclohexyl)oxy)pyridine] belongs 0.646 nM; to `CN(C)CCOc1nnc([C@H]2CC[C@H](Oc3ccccn3)CC2)n1-c1ccc(Cl)cc1` [Example 51], 32.4 nM; to `Clc1ccc(-n2cnnc2[C@H]2CC[C@H](Oc3ccccn3)CC2)cc1` [Example 52, trans((4-(4-(4-Chlorophenyl)-4H-1,2,4-triazol-3-yl)cyclohexyl)oxy)pyridine], 2.24 nM.
For the molecule `Cc1cc(Cl)ccc1-n1cnnc1[C@H]1CC[C@H](Oc2ccccn2)CC1` [Example 53], the Ki was 0.891 nM.
To `Cc1ccc(-n2cnnc2[C@H]2CC[C@H](Oc3ccccn3)CC2)c(C)c1` [Example 54, trans((4-(4-(2,4-Dimethylphenyl)-4H-1,2,4-triazol-3-yl)cyclohexyl)oxy)pyridine] belongs 2.19 nM; to `Cc1ccc(-n2c(C)nnc2[C@H]2CC[C@H](Oc3ccc(C)cn3)CC2)cc1` [Example 57, transMethyl-2-[4-[5-methyl-4-(4-methylphenyl)-1,2,4-triazol-3-yl]cyclohexyl] oxypyridine], 0.447 nM.
To `Cc1nnc([C@H]2CC[C@H](Oc3ccc(C(F)F)cn3)CC2)n1-c1ccc(Cl)cc1` [Example 60, trans((4-(4-(4-Chlorophenyl)-5-methyl-4H-1,2,4-triazol-3-yl)cyclohexyl)oxy)-5-(difluoromethyl)pyridine] belongs 2.29 nM.
For `Cc1ccc(O[C@H]2CC[C@H](c3nnc(C)n3-c3ccc(Cl)cc3)CC2)cn1` [Example 64], the Ki was 0.324 nM.
As for `Cc1ccc(-n2c(C)nnc2[C@H]2CC[C@H](Oc3ccc(C)nc3)CC2)cc1` [Example 65, transMethyl-5-[4-[5-methyl-4-(4-methylphenyl)-1,2,4-triazol-3-yl]cyclohexyl]oxypyridine], the Ki was 3.39 nM.
To `COCc1nnc([C@H]2CC[C@H](Oc3ccc(C)nc3)CC2)n1-c1ccc(C)cc1` [Example 66, trans[4-[5-(Methoxymethyl)-4-(4-methylphenyl)-1,2,4-triazol-3-yl]cyclohexyl]oxy-2-methylpyridine] belongs 3.47 nM.

The values are drawn from patent US20230202990A1, “CYCLOHEXYL SUBSTITUTED TRIAZOLES” (Hoffmann-La Roche Inc., priority 2020, published 2023).
